Assay results: US20250197864A1, “LNCRNA TRANSCRIPTS IN MELANOMAGENESIS” (The Regents of the University of California, priority 2021, published 2025)

How the values were obtained:
[1] = test system: A-172 Glioblastoma cell line; assay: Cell viability assay (ATP quantitation); format: cell-based; conditions: 50 nM, 5 days, vs non-targeting control
Outline: (§1)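 Transfection used Lipofectamine 3000 with 50 nM final oligonucleotide unless otherwise specified; MEKi was added for combination work. Plates were read for total luminescence at day 3 (synergy) or day 5 (ASO only).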

[2] = test system: AV4 melanoma cell line; assay: Cell viability assay (ATP quantitation); format: cell-based; conditions: 50 nM, 5 days, vs non-targeting control
Outline: as §1

[3] = test system: H1299 lung cancer cell line; assay: Cell viability assay (ATP quantitation); format: cell-based; conditions: 50 nM, 5 days, vs non-targeting control
Outline: as §1

[4] = test system: H2228 lung cancer cell line; assay: Cell viability assay (ATP quantitation); format: cell-based; conditions: 50 nM, 5 days, vs non-targeting control
Outline: as §1

[5] = test system: H82 lung cancer cell line; assay: Cell viability assay (ATP quantitation); format: cell-based; conditions: 50 nM, 5 days, vs non-targeting control
Outline: as §1

[6] = test system: H929 multiple myeloma cell line; assay: Cell viability assay (ATP quantitation); format: cell-based; conditions: 50 nM, 5 days, vs non-targeting control
Outline: as §1

[7] = test system: HCT116 colon carcinoma cell line; assay: Cell viability assay (ATP quantitation); format: cell-based; conditions: 50 nM, 5 days, vs non-targeting control
Outline: as §1

[8] = test system: Hs940.T melanoma cell line; assay: Cell viability assay (ATP quantitation); format: cell-based; conditions: 50 nM, 5 days, vs non-targeting control
Outline: as §1

[9] = test system: LS174 colon carcinoma cell line; assay: Cell viability assay (ATP quantitation); format: cell-based; conditions: 50 nM, 5 days, vs non-targeting control
Outline: as §1

[10] = test system: MaMel30 melanoma cell line; assay: Cell viability assay (ATP quantitation); format: cell-based; conditions: 50 nM, 5 days, vs non-targeting control
Outline: as §1

[11] = test system: SW1271 lung cancer cell line; assay: Cell viability assay (ATP quantitation); format: cell-based; conditions: 50 nM, 5 days, vs non-targeting control
Outline: as §1

[12] = test system: SW480 colon carcinoma cell line; assay: Cell viability assay (ATP quantitation); format: cell-based; conditions: 50 nM, 5 days, vs non-targeting control
Outline: as §1

[13] = test system: Sk-Mel-5 melanoma cell line; assay: Cell viability assay (ATP quantitation); format: cell-based; conditions: 50 nM, 5 days, vs non-targeting control
Outline: as §1

[14] = test system: Sk-N-AS Neuroblastoma cell line; assay: Cell viability assay (ATP quantitation); format: cell-based; conditions: 50 nM, 5 days, vs non-targeting control
Outline: as §1

[15] = test system: T98G Glioblastoma cell line; assay: Cell viability assay (ATP quantitation); format: cell-based; conditions: 50 nM, 5 days, vs non-targeting control
Outline: as §1

[16] = test system: U138-MG Glioblastoma cell line; assay: Cell viability assay (ATP quantitation); format: cell-based; conditions: 50 nM, 5 days, vs non-targeting control
Outline: as §1

[17] = test system: U20S osteosarcoma cell line; assay: Cell viability assay (ATP quantitation); format: cell-based; conditions: 50 nM, 5 days, vs non-targeting control
Outline: as §1

[18] = test system: U87-MG Glioblastoma cell line; assay: Cell viability assay (ATP quantitation); format: cell-based; conditions: 50 nM, 5 days, vs non-targeting control
Outline: as §1

[19] = test system: WM3060 melanoma cell line; assay: Cell viability assay (ATP quantitation); format: cell-based; conditions: 50 nM, 5 days, vs non-targeting control
Outline: as §1

[20] = test system: hepatocellular carcinoma cell line HepG2; assay: Cell viability assay (ATP quantitation); format: cell-based; conditions: 50 nM, 120 hrs, Lipofectamine3000 2 ul/ml, vs non-targeting control ASO
Method: (§2) EsiRNA, siRNA and ASO GapmeRs were transfected in a final concentration of 50 nM unless mentioned otherwise and the transfection reagent Lipofectamine 3000 (2 ul/ml) was added according to the manufacturer's instructions.
(§3) Dependent on cell doubling time, 0.7-2×10^^3 cells were seeded in 96 well plates. 1 day after seeding cells were incubated in media with oligonucleotide concentration and/or MEKi and transfection reagent. 3 (synergy experiments) or 5 (solely ASO) days after transfection Total luminescence was measured on the SynergyHT plate reader (BioTek) using Gen5 software.
(§4) Cell viability was compared to treatment with non-targeting control ASO-treatment. Lipofectamine3000 concentration was 2 ul/ml.

[21] = test system: sarcoma cell line SK-LMS-1; assay: Cell viability assay (ATP quantitation); format: cell-based; conditions: SK-LMS-1 sarcoma; 50 nM, 120 hrs; Lipofectamine3000 2 ul/ml; vs non-targeting control ASO
Method: as §2, §3, §4

[22] = test system: Caspase 3+7; assay: Caspase Glo 3/7 assay in D04 cell line; format: cell-based, human; conditions: ASO 50 nM, 1 day, vs control ASOs
Method: Dependent on cell doubling time, 2-3×10^^3 cells were seeded in 96 well plates. 1 day after seeding cells were incubated in media with 50 nM oligonucleotide concentration and transfection reagent. 1 day after transfection Total luminescence was measured on the SynergyHT plate reader (BioTek) using Gen5 software. Experiments were performed in quadruplicates.

[23] = test system: gene expression in D04 melanoma cells; assay: DAVID Functional Annotation Clustering (GO term) analysis of DE genes; parameters: species or system human; conditions: RNA-Seq
Method: Differential expression (DE) analysis was done using DESeq2. Differentially expressed genes were defined by more than 1.5-fold changes (log 2 >0.58 or <−0.58) in expression with FDR<0.05. GO term analysis was done using DAVID Functional Annotation Clustering analysis.
To examine the biomolecular changes upon TRASH-inhibition in melanoma, D04 cells were treated with TRASH-ASOs (SEQ ID NO:15) and Control-ASOs and RNA was extracted and used for RNA-Seq. […] These GO terms consisted of genes encoding growth factors, tyrosine kinases, G protein coupled receptor subunits, and collagen subunits. Scatter plot diagram showing differential gene expression after TRASH-ASO treatment compared to Control-ASO treatment. (cut-off for significance was adjusted p-value <0.05). Data was obtained from RNA-Seq of D04 melanoma cells, treatment period was three days. (FIG. 5c)

[24] = test system: kinases in D04, D04RM and MM415 melanoma cell extracts; assay: High Throughput Kinase Activity Mapping (HT-KAM); format: cell-based, human; conditions: ASO 50 nM, one day, vs Control-ASO
Method: We mapped and compared the phospho-catalytic profile of kinases of D04, MM415 and D04RM cells that were incubated with TRASH targeting ASOs (SEQ TD NO: 15), ASOs targeting the oncogenic lncRNA Malat1 and non-targeting control ASOs. Therefore, ye used the high-throughput system HTKAM to measure the enzymatic activity of kinases using biological peptide targets as phospho-sensors to reveal kinase dependencies in cell lines.
Kinases cover a wide range of apoptosis regulating functions in cancer. Given the findings that TRASH-ASO treatment (SEQ ID NO:15) strongly affects the transcriptional regulation of genes that are related to kinase signaling pathways, we aimed to perform functional profiling of kinase activity shifts triggered by TRASH-inhibition. To do so, we used a kinase activity screening platform39 (named High Throughput Kinase Activity Mapping—HT-KAM) that enables the simultaneous identification of kinase enzymes functional state in cancer cells across a broad range of kinase families (see Methods for details). We generated protein extracts of two versions of the D04 (D04—treatment naive; D04RM—trametinib resistant) and the MM415 melanoma cell-lines, treated with Control-ASOs or TRASH-ASOs. […]

Sequence: GACTGGAGATAATTAA (gapmer, pattern not given here) [SEQ ID NO: 15, GapmeR ASO targeting AC004540.4 (TRASH), exon region of both isoforms; used for in vitro experiments]
- cell viability decrease [1]: significant cell viability decrease
- cell viability decrease [2]: significant cell viability decrease
- cell viability decrease [3]: significant cell viability decrease
- cell viability decrease [4]: significant cell viability decrease
- cell viability decrease [5]: significant cell viability decrease
- cell viability decrease [6]: significant cell viability decrease
- cell viability decrease [7]: significant cell viability decrease
- cell viability decrease [8]: significant cell viability decrease
- cell viability decrease [9]: significant cell viability decrease
- cell viability decrease [10]: significant cell viability decrease
- cell viability decrease [11]: significant cell viability decrease
- cell viability decrease [12]: significant cell viability decrease
- cell viability decrease [13]: significant cell viability decrease
- cell viability decrease [14]: significant cell viability decrease
- cell viability decrease [15]: significant cell viability decrease
- cell viability decrease [16]: significant cell viability decrease
- cell viability decrease [17]: significant cell viability decrease
- cell viability decrease [18]: significant cell viability decrease
- cell viability decrease [19]: significant cell viability decrease
- cell viability decrease [20]: significant cell viability decrease
- cell viability decrease [21]: significant cell viability decrease
- Caspase-3 &-7 activity increase [22]: 3.0 fold
- top enriched GO term clusters associated with the down-regulated genes [23]: “ECM-receptor interaction” and “PI3K-AKT signaling pathway”
- top enriched GO term clusters associated with the up-regulated genes [23]: “protein tyrosine kinase activity” (GO: 0004713) and “Ras guanyl-nucleotide exchange factor activity” (G00005088)
- activity of anti-apoptotic kinases (AKT1, CDK1, LYN, YES1, CHEK1, PKCA, STK11, PKCa, PIM1) by HT-KAM ([24]; listed as SEQ TD NO: 15): significantly decreased activity levels
- activity of anti-apoptotic kinases (AKT1, CDK1, LYN, YES1, CHEK1, PKCA, STK11, PKCa, PIM1) by HT-KAM ([24]; listed as TRASH-ASO): significantly less active
